{"source": "EPA's ToxValDB 9.5", "key": {"Rattus norvegicus [1]": {"tested_on": "Rattus norvegicus", "settings": "for LD50: acute"}, "Oryctolagus sp. [2]": {"tested_on": "Oryctolagus sp.", "assay": "LD40; higher = less toxic", "settings": "acute; dermal; occlusive"}, "Cavia porcellus": {"tested_on": "Cavia porcellus", "settings": "uterotrophic; duration: 12 days; injection; subcutaneous; Guinea Pig; Active"}, "Monkey [3]": {"tested_on": "Monkey", "settings": "chronic; duration: 363 days; oral; diet"}, "Mus musculus [4]": {"tested_on": "Mus musculus", "settings": "oral, gavage, Swiss"}, "Canidae [5]": {"tested_on": "Canidae", "settings": "short-term; duration: 22 days; oral; Beagle"}, "Rattus norvegicus [6]": {"tested_on": "Rattus norvegicus", "settings": "subchronic; duration: 90 days; oral; drinking water; Nerve: Damage"}, "Rattus norvegicus [7]": {"tested_on": "Rattus norvegicus", "settings": "oral, drinking water, M/F"}, "Mus musculus [8]": {"tested_on": "Mus musculus", "settings": "chronic; duration: 2 years; oral; drinking water; M/F; B6C3F1; Hardarian gland & lung tumors (males)"}, "Rattus norvegicus [9]": {"tested_on": "Rattus norvegicus", "settings": "oral, M/F"}, "Gallus sp. [10]": {"tested_on": "Gallus sp.", "settings": "subchronic; duration: 3 months; oral; capsule; Nervous system: Ataxia + Nervous system: Delayed neurotoxicity + Whole body: Decreased weight"}, "Gallus sp. [11]": {"tested_on": "Gallus sp.", "settings": "subchronic; duration: 90 days; oral; F; ataxia, delayed neurotoxicity and weight loss"}, "Oryctolagus sp. [12]": {"tested_on": "Oryctolagus sp.", "settings": "acute, dermal"}, "Mus musculus [13]": {"tested_on": "Mus musculus", "assay": "LD0; higher = less toxic", "settings": "acute; injection; Intraperitoneal"}, "Anatidae": {"tested_on": "Anatidae", "settings": "oral"}, "Monkey [14]": {"tested_on": "Monkey", "settings": "chronic; duration: 5 years; inhalation; M/F; Rhesus; respiratory"}, "Canidae [15]": {"tested_on": "Canidae", "settings": "subchronic, duration: 5 weeks, inhalation, unknown, renal"}, "Oryctolagus sp. [16]": {"tested_on": "Oryctolagus sp.", "assay": "LC60; higher = less toxic", "settings": "acute; oral"}, "Homo sapiens": {"tested_on": "Homo sapiens", "assay": "LD100; higher = less toxic", "settings": "acute; oral"}, "Oryctolagus sp. [17]": {"tested_on": "Oryctolagus sp.", "settings": "developmental; oral; gavage; Prominent liver lobulation"}, "[18]": {"settings": "short-term, duration: 28 days, oral, gavage, Sprague-Dawley"}, "[19]": {"settings": "reproduction developmental, duration: 10 weeks, oral, drinking water, F, Fischer 344"}, "[20]": {"settings": "reproduction developmental, duration: 10 weeks, oral, drinking water, M, Fischer 344"}, "[21]": {"settings": "reproduction developmental, duration: 80 days, oral, drinking water, Long-Evans"}}, "note": "Where “and” joins values, the source holds several entries; their conditions need not be identical. Equal entries are not always repeated.", "data": [{"smiles": "N#Cc1cccnc1", "note": "[3-Pyridinecarbonitrile]", "values": [{"measurement": "LD50", "setting": "Rattus norvegicus [1]; oral, gavage, Sprague-Dawley", "result": "1460 mg/kg and 1480 mg/kg"}, {"measurement": "LD50", "setting": "Rattus norvegicus [1]; oral, gavage, Wistar", "result": 1100, "unit": "mg/kg"}, {"measurement": "LOAEL", "setting": "Rattus norvegicus [1]; [18]", "result": 30, "unit": "mg/kg-day"}, {"measurement": "NOAEL", "setting": "Rattus norvegicus [1]; [18]", "result": 5, "unit": "mg/kg-day"}, {"measurement": "LD40", "setting": "Oryctolagus sp. [2]", "result": "≥ 2000 mg/kg and ≤ 4000 mg/kg"}]}, {"smiles": "CC/C(=C(\\c1ccc(O)cc1)c1ccc(OCCN(C)C)cc1)c1ccccc1", "note": "[4-Hydroxytamoxifen]", "values": [{"measurement": "LEL", "setting": "Cavia porcellus", "result": 0.1, "unit": "mg/day"}]}, {"smiles": "C=CC(N)=O", "note": "[Acrylamide]", "values": [{"measurement": "NOAEL", "setting": "Monkey [3]", "result": "≥ 1 mg/kg-day and ≤ 3 mg/kg-day"}, {"measurement": "NOAEL", "setting": "Mus musculus [4]; developmental", "result": 15, "unit": "mg/kg-day"}, {"measurement": "NOAEL", "setting": "Mus musculus [4]; reproduction developmental, F", "result": 2.5, "unit": "mg/kg-day"}, {"measurement": "NOAEL", "setting": "Canidae [5]", "result": 5, "unit": "mg/kg-day"}, {"measurement": "NOAEL", "setting": "Rattus norvegicus [1]; chronic, duration: 93 days, oral, drinking water, Fischer 344", "result": 0.2, "unit": "mg/kg-day"}, {"measurement": "NOAEL", "setting": "Rattus norvegicus [1]; chronic, oral, drinking water, Fischer 344", "result": 0.1, "unit": "mg/kg-day"}, {"measurement": "NOAEL", "setting": "Rattus norvegicus [1]; developmental, oral, gavage, Sprague-Dawley / Mice: Swiss", "result": 15, "unit": "mg/kg-day"}, {"measurement": "LOAEL", "setting": "Rattus norvegicus [1]; [19]", "result": 2, "unit": "mg/kg-day"}, {"measurement": "NOAEL", "setting": "Rattus norvegicus [1]; [19]", "result": 0.5, "unit": "mg/kg-day"}, {"measurement": "NOAEL", "setting": "Rattus norvegicus [1]; reproduction developmental, duration: 10 weeks, oral, drinking water, Long-Evans, generation: F0", "result": 5, "unit": "mg/kg-day"}, {"measurement": "LOAEL", "setting": "Rattus norvegicus [1]; [20]", "result": 2, "unit": "mg/kg-day"}, {"measurement": "NOAEL", "setting": "Rattus norvegicus [1]; [20]", "result": 0.5, "unit": "mg/kg-day"}, {"measurement": "LOAEL", "setting": "Rattus norvegicus [1]; [21]", "result": 2.8, "unit": "mg/kg-day"}, {"measurement": "NOAEL", "setting": "Rattus norvegicus [1]; [21]", "result": 1.5, "unit": "mg/kg-day"}, {"measurement": "NOAEL", "setting": "Rattus norvegicus [1]; reproduction developmental, oral, drinking water, Fischer 344, generation: F0", "result": 0.5, "unit": "mg/kg-day"}, {"measurement": "NOAEL", "setting": "Rattus norvegicus [1]; reproduction developmental, oral, drinking water, Fischer 344, generation: F1", "result": 2, "unit": "mg/kg-day"}, {"measurement": "NOAEL", "setting": "Rattus norvegicus [1]; reproduction developmental, oral, drinking water, Fischer 344, generation: F2", "result": 2, "unit": "mg/kg-day"}, {"measurement": "NOAEL", "setting": "Rattus norvegicus [1]; reproduction developmental, oral, gavage, F, Sprague-Dawley / Mice: Swiss", "result": 2.5, "unit": "mg/kg-day"}, {"measurement": "NOAEL", "setting": "Rattus norvegicus [1]; short-term, duration: 28 days, oral, drinking water, Fischer 344", "result": "≥ 4.1 mg/kg-day and ≤ 4.3 mg/kg-day"}, {"measurement": "NOAEL", "setting": "Rattus norvegicus [1]; subchronic, duration: 13 weeks, oral, gavage, Fischer 344", "result": 5, "unit": "mg/kg-day"}, {"measurement": "NOEL", "setting": "Rattus norvegicus [6]", "result": 0.2, "unit": "mg/kg-day"}, {"measurement": "NOAEL", "setting": "Rattus norvegicus [7]; subchronic, duration: 90 days, Fischer 344, neurological", "result": 0.2, "unit": "mg/kg-day"}, {"measurement": "LOEL", "setting": "Mus musculus [8]", "result": 1.05, "unit": "mg/kg-day"}, {"measurement": "NOAEL", "setting": "Rattus norvegicus [9]; chronic, duration: 2 years, drinking water, Fischer 344, neurotoxicity", "result": "0.67 mg/kg-day and 1.88 mg/kg-day"}]}, {"smiles": "CCCCSP(SCCCC)SCCCC", "note": "[Merphos]", "values": [{"measurement": "LD50", "setting": "Rattus norvegicus [1]; oral, gavage, Crl", "result": 2480, "unit": "mg/kg"}, {"measurement": "NOEL", "setting": "Gallus sp. [10]", "result": 0.1, "unit": "mg/kg-day"}, {"measurement": "LOAEL", "setting": "Gallus sp. [11]", "result": 0.5, "unit": "mg/kg-day"}, {"measurement": "NOEL", "setting": "Gallus sp. [11]", "result": 0.1, "unit": "mg/kg-day"}]}, {"smiles": "CCCCC(CC)COP(=O)(O)OCC(CC)CCCC", "note": "(stereo unspecified) [Bis(2-ethylhexyl) phosphate]", "values": [{"measurement": "LD50", "setting": "Oryctolagus sp. [12]", "result": 1200, "unit": "mg/kg"}, {"measurement": "LD50", "setting": "Oryctolagus sp. [12]; occlusive, New Zealand", "result": "> 2000", "unit": "mg/kg"}, {"measurement": "LD50", "setting": "Rattus norvegicus [1]; injection, Intraperitoneal", "result": "≥ 50 mg/kg and ≤ 100 mg/kg"}, {"measurement": "LD50", "setting": "Rattus norvegicus [1]; oral", "result": 4740, "unit": "mg/kg"}, {"measurement": "LD50", "setting": "Rattus norvegicus [1]; oral, gavage, Wistar", "result": 1400, "unit": "mg/kg"}, {"measurement": "LD0", "setting": "Mus musculus [13]", "result": 63, "unit": "mg/kg"}]}, {"smiles": "[U]", "note": "[Uranium]", "values": [{"measurement": "NOAEL", "setting": "Anatidae", "result": 16, "unit": "mg/kg-day"}, {"measurement": "LOAEL", "setting": "Monkey [14]", "result": 5.1, "unit": "mg/m3"}, {"measurement": "LOAEL", "setting": "Canidae [15]; not reported", "result": 0.15, "unit": "mg/m3"}, {"measurement": "NOAEL", "setting": "Canidae [15]; unspecified", "result": 1.1, "unit": "mg/m3"}, {"measurement": "LOAEL", "setting": "Rattus norvegicus [7]; chronic, duration: 91 days, Sprague-Dawley, renal", "result": 0.06, "unit": "mg/kg-day"}]}, {"smiles": "Cc1ccc(C)c(O)c1", "note": "[2,5-Dimethylphenol]", "values": [{"measurement": "LD50", "setting": "Rattus norvegicus [1]; oral", "result": 444, "unit": "mg/kg"}, {"measurement": "LC60", "setting": "Oryctolagus sp. [16]", "result": 938, "unit": "mg/kg"}]}, {"smiles": "CCCCCCCCCCCCCCCCCC(=O)O", "note": "[Octadecanoic acid]", "values": [{"measurement": "LD100", "setting": "Homo sapiens", "result": 14300, "unit": "mg/kg"}, {"measurement": "LD50", "setting": "Rattus norvegicus [1]; oral", "result": 4600, "unit": "mg/kg"}]}, {"smiles": "Cc1cc(C)[nH]c(=O)n1.O=C(Nc1ccc([N+](=O)[O-])cc1)Nc1ccc([N+](=O)[O-])cc1", "note": "[1,3-Bis(4-nitrophenyl)urea 4,6-dimethylpyrimidin-2-ol (1:1)]", "values": [{"measurement": "NOAEL", "setting": "Oryctolagus sp. [17]", "result": 60, "unit": "mg/kg-day"}, {"measurement": "NOEL", "setting": "Rattus norvegicus [9]; reproduction developmental, gavage, CD/CRJ, Maternal mortality & decreased bodyweight gain & feed consumption / decreased bodyweight & various malformations in offspring", "result": 200, "unit": "mg/kg-day"}]}]}
